For data set [1] the following is noted: description from the drug label; cited from earlier work.
Data set [2] in a line: Storage stability of the solid form. Type of data set: physicochemical. Conditions: storage for longer time; no conditions or data printed.

As to `CO[C@H]1C(=O)[C@]2(C)[C@@H](OC)C[C@H]3OC[C@@]3(OC(C)=O)[C@H]2[C@H](OC(=O)c2ccccc2)[C@]2(O)C[C@H](OC(=O)[C@H](O)[C@@H](NC(=O)OC(C)(C)C)c3ccccc3)C(C)=C1C2(C)C` [Cabazitaxel, (2α,5β,7β,10β,13α)-4-acetoxy-13-({(2R,3S)-3[(tert-butoxycarbonyl)amino]-2-hydroxy-3-phenylpropanoyl}oxy)-1-hydroxy-7,10-dimethoxy-9-oxo-5,20-epoxytax-11-en-2-yl benzoate], the solubility in water entry in data set [1] is “practically insoluble in water”.

For `CO[C@H]1C(=O)[C@@]2(C)C([C@H](OC(=O)c3ccccc3)[C@]3(O)C[C@H](OC(=O)[C@H](O)[C@H](NC(=O)OC(C)(C)C)c4ccccc4)C(C)=C1C3(C)C)[C@]1(OC(C)=O)CO[C@@H]1C[C@@H]2OC` (some centres unmarked), in data set [2], the “stability on handling and storage (morphology and physicochemical characteristics)” value is “quite stable”.

The values are drawn from patent publication US20160340327A1, “PROCESS FOR PREPARING AMORPHOUS CABAZITAXEL” (SHILPA MEDICARE LIMITED, priority 2012, published 2016).
